For the assay, the system named is test plant species. Briefly: Post-emergent herbicidal activity test (greenhouse, foliar spray, visual growth reduction). It counts as in vivo. Particulars: post-emergence, 336 h, 140 g ai/ha, 14 days after application. The gist of the method:
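Greenhouse plants at first–second true leaf stage sprayed overhead at 187 L/ha with compound in acetone/water/isopropanol/DMSO/crop oil/X-77 carrier; controls received solvent blank. Injury rated visually after 14 d on a 0–100% scale versus untreated and control plants, converted to growth reduction.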

[1] abbreviates: ALOMY: blackgrass (Alopecurus myosuroides), read-out: Visual Growth Reduction (%) 14 Days After Application, ALOMY.
The mark [2] stands for this setting: AMARE: redroot pigweed (Amaranthus retroflexus), read-out: Visual Growth Reduction (%) 14 Days After Application, AMARE.
[3] abbreviates: AVEFA: wild oat (Avena fatua), read-out: Visual Growth Reduction (%) 14 Days After Application, AVEFA.
The mark [4] stands for this setting: CHEAL: lambsquarters (Chenopodium album), read-out: Visual Growth Reduction (%) 14 Days After Application, CHEAL.
The mark [5] stands for this setting: CIRAR: canada thistle (Cirsium arvense), read-out: Visual Growth Reduction (%) 14 Days After Application, CIRAR.
The mark [6] stands for this setting: CYPES: yellow nutsedge (Cyperus esculentus), read-out: Visual Growth Reduction (%) 14 Days After Application, CYPES.
The mark [7] stands for this setting: DIGSA: crabgrass (Digitaria sanguinalis), read-out: Visual Growth Reduction (%) 14 Days After Application, DIGSA.
[8] abbreviates: ECHCG: barnyardgrass (Echinochloa crus-galli), read-out: Visual Growth Reduction (%) 14 Days After Application, ECHCG.
The mark [9] stands for this setting: IPOHE: ivy-leaf morning glory (Ipomoea hederacea), read-out: Visual Growth Reduction (%) 14 Days After Application, IPOHE.
Setting [10] is: KCHSC: kochia (Bassia scoparia), read-out: Visual Growth Reduction (%) 14 Days After Application, KCHSC.
Setting [11] is: ORYSA: rice (Oryza sativa), read-out: Visual Growth Reduction (%) 14 Days After Application, ORYSA.
Where [12] appears, read: SETFA: giant foxtail (Setaria faberi), read-out: Visual Growth Reduction (%) 14 Days After Application, SETFA.
[13] abbreviates: SORVU: grain sorghum (Sorghum vulgare), read-out: Visual Growth Reduction (%) 14 Days After Application, SORVU.
The mark [14] stands for this setting: STEME: common chickweed (Stellaria media), read-out: Visual Growth Reduction (%) 14 Days After Application, STEME.
The mark [15] stands for this setting: TRZAS: wheat, spring (Triticum aestivum), read-out: Visual Growth Reduction (%) 14 Days After Application, TRZAS.

Each structure is given as a SMILES string. Like-named read-outs stand apart in the source and are kept apart here.

As for `O=C(O)c1nc(-c2ccc(C(F)(F)F)cc2)c(Cl)cc1Cl` [F96, 3,5-Dichloro-6-(4-(trifluoromethyl)phenyl)picolinic acid], the pest or weed control at 140 g/ha under setting [1] is 0 to 29%; the pest or weed control at 140 g/ha under setting [2] lay in the range of 30 to 44%; the pest or weed control at 140 g/ha under setting [3] fell in the range of 0 to 29%; the pest or weed control at 140 g/ha under setting [4] was in the range of 60 to 74%; the pest or weed control at 140 g/ha under setting [5] was in the range of 30 to 44%; the pest or weed control at 140 g/ha under setting [6] was in the range of 0 to 29%. Besides, the pest or weed control at 140 g/ha was in the range of 0 to 29% under setting [7]; 0 to 29% under setting [8]; 75 to 84% under setting [9]; 0 to 29% under setting [10]; 0 to 29% under setting [11]; 45 to 59% under setting [12]. Besides, the pest or weed control at 140 g/ha lay within 60 to 74% under setting [13], 0 to 29% under setting [14] and 0 to 29% under setting [15].
In the case of `COC(=O)c1nc(-c2ccc(SC(F)(F)F)cc2)ccc1Cl` [F97, Methyl 3-chloro-6-(4-((trifluoromethyl)thio)phenyl)picolinate], the pest or weed control at 140 g/ha under setting [1] is 0 to 29%; the pest or weed control at 140 g/ha under setting [2] lay within 0 to 29%; the pest or weed control at 140 g/ha under setting [3] lay within 0 to 29%; the pest or weed control at 140 g/ha under setting [4] was 0 to 29%; the pest or weed control at 140 g/ha under setting [5] was 0 to 29%; the pest or weed control at 140 g/ha under setting [6] lay in the range of 0 to 29%. The pest or weed control at 140 g/ha was 0 to 29% under setting [7]; 0 to 29% under setting [8]; 0 to 29% under setting [9]; 0 to 29% under setting [10]; 0 to 29% under setting [11]; 0 to 29% under setting [12]. Moreover, the pest or weed control at 140 g/ha reads like this: under setting [13], 0 to 29%; under setting [14], 0 to 29%; under setting [15], 0 to 29%.
On to `COC(=O)c1nc(-c2ccc(SC(F)(F)F)cc2)c(Cl)cc1Cl` [F98, Methyl 3,5-dichloro-6-(4-((trifluoromethyl)thio)phenyl)picolinate], for which the pest or weed control at 140 g/ha runs as follows: under setting [1], 0 to 29%; under setting [2], 0 to 29%; under setting [3], 0 to 29%; under setting [4], 0 to 29%; under setting [5], 0 to 29%; under setting [6], 0 to 29%. Moreover, the pest or weed control at 140 g/ha under setting [7] was in the range of 0 to 29%; the pest or weed control at 140 g/ha under setting [8] fell in the range of 0 to 29%; the pest or weed control at 140 g/ha under setting [9] was in the range of 0 to 29%; the pest or weed control at 140 g/ha under setting [10] lay in the range of 0 to 29%; the pest or weed control at 140 g/ha under setting [11] was 0 to 29%; the pest or weed control at 140 g/ha under setting [12] lay in the range of 0 to 29%. In addition, the pest or weed control at 140 g/ha by setting is: under setting [13], 0 to 29%; under setting [14], 0 to 29%; under setting [15], 0 to 29%.
With `COC(=O)c1nc(-c2ccc(C(F)(F)F)nc2)c(Cl)cc1Cl` [F99, methyl 3,5-dichloro-6′-(trifluoromethyl)-[2,3′-bipyridine]-6-carboxylate], the pest or weed control at 140 g/ha reads like this: under setting [1], 0 to 29%; under setting [2], 0 to 29%; under setting [3], 0 to 29%; under setting [4], 0 to 29%; under setting [5], 0 to 29%; under setting [6], 0 to 29%. Also, the pest or weed control at 140 g/ha is, setting by setting: under setting [7], 0 to 29%; under setting [8], 0 to 29%; under setting [9], 0 to 29%; under setting [10], 0 to 29%; under setting [11], 0 to 29%; under setting [12], 0 to 29%. Further, the pest or weed control at 140 g/ha is, setting by setting: under setting [13], 0 to 29%; under setting [14], 0 to 29%; under setting [15], 0 to 29%.
Consider `COC(=O)c1nc(-c2ccc(I)cc2)c(F)cc1Cl` [F100, Methyl 3-chloro-5-fluoro-6-(4-iodophenyl) picolinate], for which the pest or weed control at 140 g/ha under setting [1] was in the range of 0 to 29%; the pest or weed control at 140 g/ha under setting [2] was 0 to 29%; the pest or weed control at 140 g/ha under setting [3] is 0 to 29%; the pest or weed control at 140 g/ha under setting [4] fell in the range of 0 to 29%; the pest or weed control at 140 g/ha under setting [5] lay in the range of 45 to 59%; the pest or weed control at 140 g/ha under setting [6] is 30 to 44%. Moreover, the pest or weed control at 140 g/ha reads like this: under setting [7], 0 to 29%; under setting [8], 0 to 29%; under setting [9], 30 to 44%; under setting [10], 0 to 29%; under setting [11], 0 to 29%; under setting [12], 0 to 29%. For the same molecule, the pest or weed control at 140 g/ha runs as follows: under setting [13], 30 to 44%; under setting [14], 0 to 29%; under setting [15], 0 to 29%.
`COC(=O)c1nc(-c2ncc(C(F)(F)F)cc2Cl)ccc1Cl` [F101, methyl 3′,5-dichloro-5′-(trifluoromethyl)-[2,2′-bipyridine]-6-carboxylate]: the pest or weed control at 140 g/ha reads like this: under setting [1], 0 to 29%; under setting [2], 95 to 100%; under setting [3], 0 to 29%; under setting [4], 95 to 100%; under setting [5], 85 to 94%; under setting [6], 75 to 84%. Moreover, the pest or weed control at 140 g/ha under setting [7] fell in the range of 95 to 100%; the pest or weed control at 140 g/ha under setting [8] was in the range of 85 to 94%; the pest or weed control at 140 g/ha under setting [9] was in the range of 95 to 100%; the pest or weed control at 140 g/ha under setting [10] was 95 to 100%; the pest or weed control at 140 g/ha under setting [11] was 0 to 29%; the pest or weed control at 140 g/ha under setting [12] lay within 75 to 84%. Moreover, the pest or weed control at 140 g/ha by setting is: under setting [13], 95 to 100%; under setting [14], 0 to 29%; under setting [15], 60 to 74%.
For `COC(=O)c1nc(-c2ccc(C(F)(F)F)cc2F)c(Cl)cc1Cl` [F102, Methyl 3,5-dichloro-6-(2-fluoro-4-(trifluoromethyl)phenyl)picolinate], the pest or weed control at 140 g/ha by setting is: under setting [1], 0 to 29%; under setting [2], 45 to 59%; under setting [3], 0 to 29%; under setting [4], 60 to 74%; under setting [5], 0 to 29%; under setting [6], 0 to 29%. In addition, the pest or weed control at 140 g/ha reads like this: under setting [7], 0 to 29%; under setting [8], 0 to 29%; under setting [9], 60 to 74%; under setting [10], 0 to 29%; under setting [11], 0 to 29%; under setting [12], 0 to 29%. The pest or weed control at 140 g/ha runs as follows: under setting [13], 60 to 74%; under setting [14], 0 to 29%; under setting [15], 0 to 29%.
Regarding `COC(=O)c1nc(-c2ccc(C(F)(F)F)cc2Cl)ncc1OC` [F104, Methyl 2-(2-chloro-4-(trifluoromethyl)phenyl)-5-methoxypyrimidine-4-carboxylate], the pest or weed control at 140 g/ha under setting [1] lay within 0 to 29%; the pest or weed control at 140 g/ha under setting [2] is 0 to 29%; the pest or weed control at 140 g/ha under setting [3] was 0 to 29%; the pest or weed control at 140 g/ha under setting [4] is 0 to 29%; the pest or weed control at 140 g/ha under setting [5] lay within 0 to 29%; the pest or weed control at 140 g/ha under setting [6] fell in the range of 0 to 29%. Moreover, the pest or weed control at 140 g/ha is 60 to 74% under setting [7]; 0 to 29% under setting [8]; 60 to 74% under setting [9]; 0 to 29% under setting [10]; 0 to 29% under setting [11]; 0 to 29% under setting [12]. The pest or weed control at 140 g/ha under setting [13] fell in the range of 60 to 74%, the pest or weed control at 140 g/ha under setting [14] lay within 0 to 29% and the pest or weed control at 140 g/ha under setting [15] was in the range of 0 to 29%.
